Source: PubChem BioAssay AID2060510 (Molecular Pharmacology Branch, DTP, NCI, 2025)

Test system: 439559-082-T-J2-PDC spheroids viability
Assay: Anticancer human tumor 439559-082-T-J2-PDC patient-derived colon adenocarcinoma cell line growth inhibition [GQUAD]
Settings: for IC50: curve of first compound; for viability, T/C: stronger effect = lower value
Excerpt: DNA G-quadruplex Stabilizer Agents in Combinations in Complex Spheroids
A high-throughput screen of multi-cell type tumor spheroids was designed to identify active combinations of DNA G-quadruplex stabilizer agents and targeted small molecules. Complex spheroids include a stromal component modeled by human endothelial cells (HUVEC) and fibroblasts modeled by human mesenchymal stem cells (MSCs). The concentration ranges selected for each drug and investigational agent were based upon clinically achievable concentrations if the clinical Cmax of the agent was known.
Compounds. The drugs and investigational agents: pidnarulex (CX-5461; NSC782164), APTO-253 (NSC789042), BRACO-19 (NSC847499), peposertib (NSC802822), ceralasertib (NSC780249), elimusertib (NSC800525), camonsertib (NSC841442), AZD-1390 (NSC803789), olaparib (NSC753686), talazoparib (NSC767125), ART-558 (NSC835418), sotorasib (NSC818433), MRTX-1133 (NSC836407), SN-38 (NSC673596), topotecan (NSC609699), etoposide (NSC141540), doxorubicin (NSC123127), gemcitabine (NSC613327), 5-fluorouracil (NSC19893), paclitaxel (NSC125973), vemurafenib (NSC761431), panobinostat (NSC761190), R-306465 (JNJ-16241199; NSC773264), adavosertib (NSC754352), TP-3654 (NSC805149), carboplatin (NSC241240), KSQ-4279 (NSC840948), and staurosporine (NSC755774) were obtained from the National Cancer Institute (NCI) Developmental Therapeutics Program Chemical Repository (34). The FDA-approved anticancer drug set is available from the NCI Developmental Therapeutics Program. […] The stock solutions were prepared in dimethyl sulfoxide (DMSO, Sigma-Aldrich, St. Louis, MO, cat. D2650) at 800-fold the tested concentration and stored at -70 degrees C prior to their use. All drugs and investigational agents were tested over a range starting from a high concentration at or near the clinical Cmax and decreasing in half-log increments. If the clinical Cmax for an agent had not been determined, the highest concentration tested was 10 microM.
2.3 Cell Culture. All cells were maintained in an incubator at 37 degrees C and 5% CO2 with 95% humidity. The PDC lines were cultured according to standard operating procedures established by the NCI PDMR. All PDCs were thawed and cultured in Matrigel-coated flasks prepared with a working solution of 1X Ham's F-12 nutrient mix, without supplementation (Invitrogen, cat. 11765054), 100 U/mL penicillin-streptomycin (Invitrogen, cat. 15140122), and 2.5% Matrigel (Corning Inc., cat. 354248) for the first three passages. The 857933-349-R-J2-PDC line was cultured in 6C/Colon 1B media, which includes advanced DMEM/F-12 (Thermo Fisher Scientific, cat. 12634028), 10 mM HEPES (Thermo Fisher Scientific, cat. 15630080), 1X GlutaMAX supplement (Thermo Fisher Scientific, cat. 35050061), 0.1 mg/mL primocin (InvivoGen, cat. ant-pm-2), 10% defined fetal bovine serum, heat inactivated (HyClone Laboratories Inc., cat. SH30070.03HI), 50% L-WRN conditioned media (ATCC, cat. CRL-3276), 1.25 mM N-Acetyl-L-cysteine (Sigma-Aldrich, cat. A9165), 10 mM nicotinamide (Sigma-Aldrich, cat. N0636), 1X B-27 supplement (Thermo Fisher Scientific, cat. 17504044), 1X N-2 supplement (Thermo Fisher Scientific, cat. 17502048), 10 microM Y-27632 dihydrochloride (Tocris Bioscience, cat. 1254), and 50 ng/mL human EGF recombinant protein (Thermo Fisher Scientific, cat. PHG0311). The 485176-168-R4-J1-PDC line was cultured in Panc media, which includes all 6C/Colon 1B media components plus 100 ng/mL human FGF-10 (Thermo Fisher Scientific, cat. 100-26), 500 nM SB-431542 (Selleckchem, cat. S1067), and gastrin (Tocris, cat. 3006).
[…]
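Note: spheroids exposed to the agents for 7 days before readout.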
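Throughout, for viability, T/C: percent of luminescence signal in DMSO vehicle wells taken as 100% viability.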

`CC(=O)O[C@H]1C(=O)[C@@]2(C)[C@H]([C@H](OC(=O)c3ccccc3)[C@]3(O)C[C@H](OC(=O)[C@H](O)[C@@H](NC(=O)c4ccccc4)c4ccccc4)C(C)=C1C3(C)C)[C@]1(OC(C)=O)CO[C@@H]1C[C@@H]2O` + Cc1cnc(CNC(=O)c2c(=O)c3ccc(N4CCCN(C)CC4)nc3n3c2sc2ccccc23)cn1 was tested, and the IC50 (second compound 0.0316 µM) was 2.82 µM, the IC50 (second compound 0.1 µM) was 3.41 µM and the IC50 (second compound 0.316 µM) was 3.38 µM. It also gave an IC50 (second compound 1 µM) of 3.3 µM, an IC50 (second compound 3.16 µM) of 5.1 µM and an IC50 (second compound 10 µM) of 4.09 µM. The viability, T/C (second compound 0.0316 µM, first compound 0.0316 µM) was 89.9%, the viability, T/C (second compound 0.0316 µM, first compound 0.1 µM) was 89.1% and the viability, T/C (second compound 0.0316 µM, first compound 0.316 µM) was 81.3%. The viability, T/C (second compound 0.0316 µM, first compound 1 µM) was 74.2%, the viability, T/C (second compound 0.0316 µM, first compound 3.16 µM) was 46.1% and the viability, T/C (second compound 0.0316 µM, first compound 10 µM) was 39.6%. It also gave a viability, T/C (second compound 0.1 µM, first compound 0.0316 µM) of 97.5%, a viability, T/C (second compound 0.1 µM, first compound 0.1 µM) of 88% and a viability, T/C (second compound 0.1 µM, first compound 0.316 µM) of 70.7%. For the same compound, the viability, T/C (second compound 0.1 µM, first compound 1 µM) was 70%, the viability, T/C (second compound 0.1 µM, first compound 3.16 µM) was 46% and the viability, T/C (second compound 0.1 µM, first compound 10 µM) was 40.5%. For the same compound, the viability, T/C (second compound 0.316 µM, first compound 0.0316 µM) was 90.3%, the viability, T/C (second compound 0.316 µM, first compound 0.1 µM) was 81.2% and the viability, T/C (second compound 0.316 µM, first compound 0.316 µM) was 78.2%. For the same compound, the viability, T/C (second compound 0.316 µM, first compound 1 µM) was 65.8%, the viability, T/C (second compound 0.316 µM, first compound 3.16 µM) was 49.3% and the viability, T/C (second compound 0.316 µM, first compound 10 µM) was 39.2%. It also gave a viability, T/C (second compound 1 µM, first compound 0.0316 µM) of 74.7%, a viability, T/C (second compound 1 µM, first compound 0.1 µM) of 72.8% and a viability, T/C (second compound 1 µM, first compound 0.316 µM) of 76.6%. It also gave a viability, T/C (second compound 1 µM, first compound 1 µM) of 61.8%, a viability, T/C (second compound 1 µM, first compound 3.16 µM) of 51.8% and a viability, T/C (second compound 1 µM, first compound 10 µM) of 42.9%. It also gave a viability, T/C (second compound 3.16 µM, first compound 0.0316 µM) of 62.2%, a viability, T/C (second compound 3.16 µM, first compound 0.1 µM) of 73.1% and a viability, T/C (second compound 3.16 µM, first compound 0.316 µM) of 72.5%. For the same compound, the viability, T/C (second compound 3.16 µM, first compound 1 µM) was 58.9%, the viability, T/C (second compound 3.16 µM, first compound 3.16 µM) was 54.7% and the viability, T/C (second compound 3.16 µM, first compound 10 µM) was 42.4%. It also gave a viability, T/C (second compound 10 µM, first compound 0.0316 µM) of 64.8%, a viability, T/C (second compound 10 µM, first compound 0.1 µM) of 57.1% and a viability, T/C (second compound 10 µM, first compound 0.316 µM) of 61.1%. For the same compound, the viability, T/C (second compound 10 µM, first compound 1 µM) was 56%, the viability, T/C (second compound 10 µM, first compound 3.16 µM) was 55.3% and the viability, T/C (second compound 10 µM, first compound 10 µM) was 36.6%.
